Data taken from PubChem BioAssay AID2243 (The Scripps Research Institute Molecular Screening Center, 2010).
Activity calls are given as the source filed them. The rule behind the calls is not given here.

Tested on: cytotoxicity counterscreen, ATP luminescence viability
Assay: cell viability loss – luminescence, cytotoxicity control for RBBP9 inhibitor project, late-stage follow-up (AID 2243)

Compound: C/C(=N\OC(=O)C1CCCCC1)c1nccs1
- CC50: > 100 µM (inactive)
